# Measured values from patent publication US20190054087A1, “TREATMENT OF SMALL CELL LUNG CANCER WITH A PARP INHIBITOR” (priority 2015, published 2019).
# Like-named read-outs stand apart in the source and are kept apart here.
# Columns and labels:
# LXFS 1129 SCLC PDX tumor = assay: Human SCLC PDX model LXFS 1129; assay type: in vivo, immunocompromised mice; conditions: D 21, MTD 0.25-0.3 mg/kg once daily oral, median tumor volume (n = 5)
# Description: (§1) Twelve human SCLC PDX models (obtained from Crown Biosciences, OncoTest, WuxiAppTec) were evaluated for their responses to talazoparib single agent treatment. PDX tumors were propagated subcutaneously in immunocompromised mice at passage 3 to 13. When tumors reached approximately 150 mm^3 average volume, animals (n=5 per group) were administered orally with vehicle (once daily dose), or talazoparib at the maximum tolerated dose (MTD; 0.25-0.3 mg/kg, once daily). Tumor volume and animal body weight were measured twice weekly until the end of study or until tumor size exceeded 2000 mm^3. Untreated tumor samples were collected from mice. Median tumor volume on Day 21 and beyond after first treatment was used to calculate the change from baseline to evaluate response.
# CTG-0198 SCLC PDX tumor = assay: Human SCLC PDX model CTG-0198; assay type: in vivo, immunocompromised mice; conditions: D 29, MTD 0.25-0.3 mg/kg once daily oral, median tumor volume (n = 5)
# Description: as §1
# NCI-H209 SCLC xenograft = assay: Cell line-derived xenograft model NCI-H209; assay type: in vivo, BALB/c nude mice; conditions: 0.33 mg/kg, Q1D×28 p.o.
# Description: (§2) Human NCI-H1048, NCI-H209, and NCI-H69 SCLC tumor cells were injected subcutaneously in the flanks of BALB/c nude mice. When tumors reached approximately 130 mm^3 average volume, animals (n=8 per group) were treated with vehicle (Q1D×28, p.o.), cisplatin (6 mg/kg, Q6D×2 i.p.), or talazoparib (0.33 mg/kg, Q1D×28 p.o.). Tumor growth and animal body weight were monitored twice per week by standard methods.
# LXFS 615 SCLC PDX tumor = assay: Human SCLC PDX model LXFS 615; assay type: in vivo, immunocompromised mice; conditions: D 21, MTD 0.25-0.3 mg/kg once daily oral, median tumor volume (n = 5)
# Description: as §1
# 38 SCLC cell lines = assay: Cell line cytotoxicity assay (CellTiter Glo), panel of 38 SCLC cell lines; assay type: cell-based; conditions: Homo sapiens, 38 SCLC lines, 5 or 7 days incubation, generational method
# Description: Various SCLC cell lines (38) were obtained from ATCC (American Type Culture Collection), ECACC (European Collection of Cell Cultures), JCRB (Japanese Collection of Research Bioresources), and CLS Cell Lines Service as shown in Table 1. […] After 24 h, talazoparib at 2000, 400, 80, 16, 3.2, or 0.64 nM in 0.2% DMSO, or cisplatin at 100,000, 2000, 400, 80, 16, or 3.2 nM were added in duplicate, and incubated for an additional 5 or 7 days. Cell survival was determined by CellTiter Glo assay (Promega). Cell growth inhibition was calculated by two methods: (a) the treated cell counts relative to untreated control to obtain IC50 (convention survival fraction method), or (b) doublings from baseline under treatment relative to doublings from baseline without treatment to obtain GI50 (generational method), using GraphPad Prism5. Maximum inhibition levels for each method were also obtained.
# NCI-H69 SCLC cell line = assay: Cell line cytotoxicity assay (CellTiter Glo), NCI-H69; assay type: cell-based; conditions: Homo sapiens, SLFN11 RMA 3.981, read-out: BMN 673 Sensitivity In vitro GI50
# Description: (§3) After 24 h, talazoparib at 2000, 400, 80, 16, 3.2, or 0.64 nM in 0.2% DMSO, or cisplatin at 100,000, 2000, 400, 80, 16, or 3.2 nM were added in duplicate, and incubated for an additional 5 or 7 days. Cell survival was determined by CellTiter Glo assay (Promega). Cell growth inhibition was calculated by two methods: (a) the treated cell counts relative to untreated control to obtain IC50 (convention survival fraction method), or (b) doublings from baseline under treatment relative to doublings from baseline without treatment to obtain GI50 (generational method), using GraphPad Prism5. Maximum inhibition levels for each method were also obtained.
# LXFS 2156 SCLC PDX tumor = assay: Human SCLC PDX model LXFS 2156; assay type: in vivo, immunocompromised mice; conditions: D 21, MTD 0.25-0.3 mg/kg once daily oral, median tumor volume (n = 5)
# Description: as §1
# CTG-0199 SCLC PDX tumor = assay: Human SCLC PDX model CTG-0199; assay type: in vivo, immunocompromised mice; conditions: D 21, MTD 0.25-0.3 mg/kg once daily oral, median tumor volume (n = 5)
# Description: as §1
# [1] = tested on: LU-01-0547 SCLC PDX tumor; assay: Human SCLC PDX model LU-01-0547; assay type: in vivo, immunocompromised mice; conditions: D 83, MTD 0.25-0.3 mg/kg once daily oral, median tumor volume (n = 5)
# Description: as §1
# NCI-H209 SCLC cell line = assay: Cell line cytotoxicity assay (CellTiter Glo), NCI-H209; assay type: cell-based; conditions: Homo sapiens, SLFN11 RMA 8.794, read-out: BMN 673 Sensitivity In vitro GI50
# Description: as §3
# LU65 SCLC PDX tumor = assay: Human SCLC PDX model LU65; assay type: in vivo, immunocompromised mice; conditions: D 21, MTD 0.25-0.3 mg/kg once daily oral, median tumor volume (n = 5)
# Description: as §1
# [2] = tested on: Twelve human SCLC PDX models; assay: Twelve human SCLC PDX models, response classification; assay type: in vivo, immunocompromised mice; conditions: 12 SCLC PDX models; talazoparib at maximum tolerated dose
# Description: as §1
# Twelve human SCLC PDX models were further tested with talazoparib at maximum tolerated doses compared to a vehicle control.
# NCI-H1048 SCLC xenograft = assay: Cell line-derived xenograft model NCI-H1048; assay type: in vivo, BALB/c nude mice; conditions: 0.33 mg/kg, Q1D×28 p.o.
# Description: as §2
# NCI-H1048 SCLC cell line = assay: Cell line cytotoxicity assay (CellTiter Glo), NCI-H1048; assay type: cell-based; conditions: Homo sapiens, SLFN11 RMA 7.583, read-out: BMN 673 Sensitivity In vitro GI50
# Description: as §3
# NCI-H69 SCLC xenograft = assay: Cell line-derived xenograft model NCI-H69; assay type: in vivo, BALB/c nude mice; conditions: 0.33 mg/kg, Q1D×28 p.o.
# Description: as §2
# LU2514 SCLC PDX tumor = assay: Human SCLC PDX model LU2514; assay type: in vivo, immunocompromised mice; conditions: D 21, MTD 0.25-0.3 mg/kg once daily oral, median tumor volume (n = 5)
# Description: as §1
# LU1267 SCLC PDX tumor = assay: Human SCLC PDX model LU1267; assay type: in vivo, immunocompromised mice; conditions: D 38, MTD 0.25-0.3 mg/kg once daily oral, median tumor volume (n = 5)
# Description: as §1
# LU67 SCLC PDX tumor = assay: Human SCLC PDX model LU67; assay type: in vivo, immunocompromised mice; conditions: D 25, MTD 0.25-0.3 mg/kg once daily oral, median tumor volume (n = 5)
# Description: as §1
# LXFS 650 SCLC PDX tumor = assay: Human SCLC PDX model LXFS 650; assay type: in vivo, immunocompromised mice; conditions: D 21, MTD 0.25-0.3 mg/kg once daily oral, median tumor volume (n = 5)
# Description: as §1
# LXFS 573 SCLC PDX tumor = assay: Human SCLC PDX model LXFS 573; assay type: in vivo, immunocompromised mice; conditions: D 21, MTD 0.25-0.3 mg/kg once daily oral, median tumor volume (n = 5)
# Description: as §1
structure (smiles),measurement,setting,value
Cn1ncnc1[C@H]1c2n[nH]c(=O)c3cc(F)cc(c23)N[C@@H]1c1ccc(F)cc1 [talazoparib],Best response: Change from base line (%),LXFS 1129 SCLC PDX tumor,260%
same,Best response: Change from base line (%),CTG-0198 SCLC PDX tumor,−55%
same,BMN 673 Sensitivity In vivo Tumor growth,NCI-H209 SCLC xenograft,much more sensitive to talazoparib than the H69 model
same,BMN 673 Sensitivity In vivo Tumor growth,"NCI-H209 SCLC xenograft; listed as BMN 673, 0.33 mg/kg",Delay
same,Best response: Change from base line (%),LXFS 615 SCLC PDX tumor,83%
same,GI50,38 SCLC cell lines; read-out: GI50 range across the 38 SCLC lines,≥ 2 nM
same,GI50,38 SCLC cell lines; read-out: median GI50 across the 38 SCLC lines,56 nM
same,GI50,NCI-H69 SCLC cell line,190 nM
same,Best response: Change from base line (%),LXFS 2156 SCLC PDX tumor,615%
same,Best response: Change from base line (%),CTG-0199 SCLC PDX tumor,318%
same,Best response: Change from base line (%),[1],−95%
same,GI50,NCI-H209 SCLC cell line,2.03 nM
same,Best response: Change from base line (%),LU65 SCLC PDX tumor,17%
same,PDX models designated as progressive disease (PD),[2],remaining PDX models were resistant
same,"PDX models with 30% or more tumor regression compared to baseline (partial responders, PR)",[2],Three of the 12
same,"PDX tumors with stable disease (SD)-like responses, tumor growth less than 100% on Day 21 or beyond",[2],three of the 12
same,BMN 673 Sensitivity In vivo Tumor growth,NCI-H1048 SCLC xenograft,much more sensitive to talazoparib than the H69 model
same,BMN 673 Sensitivity In vivo Tumor growth,"NCI-H1048 SCLC xenograft; listed as BMN 673, 0.33 mg/kg",Delay
same,GI50,NCI-H1048 SCLC cell line,14.4 nM
same,BMN 673 Sensitivity In vivo Tumor growth,NCI-H69 SCLC xenograft,No delay
same,Best response: Change from base line (%),LU2514 SCLC PDX tumor,262%
same,Best response: Change from base line (%),LU1267 SCLC PDX tumor,−30%
same,Best response: Change from base line (%),LU67 SCLC PDX tumor,−29%
same,Best response: Change from base line (%),LXFS 650 SCLC PDX tumor,314%
same,Best response: Change from base line (%),LXFS 573 SCLC PDX tumor,351%
